# Measured values as given in patent EP4061322B1 (Institut des Sciences et Industries du Vivant et de …, priority 2019, dated 2021).
# Assays:
# [1] = target: T1, PXR (pregnane X receptor) (Homo sapiens, UniProt O75469); experiment: Endocrine system: receptor activity in presence of compound (agonist effect); assay type: cell-based; settings: Figure 6, C = 10 µM; even at the highest concentrations
# T1 sequence (O75469 1-434): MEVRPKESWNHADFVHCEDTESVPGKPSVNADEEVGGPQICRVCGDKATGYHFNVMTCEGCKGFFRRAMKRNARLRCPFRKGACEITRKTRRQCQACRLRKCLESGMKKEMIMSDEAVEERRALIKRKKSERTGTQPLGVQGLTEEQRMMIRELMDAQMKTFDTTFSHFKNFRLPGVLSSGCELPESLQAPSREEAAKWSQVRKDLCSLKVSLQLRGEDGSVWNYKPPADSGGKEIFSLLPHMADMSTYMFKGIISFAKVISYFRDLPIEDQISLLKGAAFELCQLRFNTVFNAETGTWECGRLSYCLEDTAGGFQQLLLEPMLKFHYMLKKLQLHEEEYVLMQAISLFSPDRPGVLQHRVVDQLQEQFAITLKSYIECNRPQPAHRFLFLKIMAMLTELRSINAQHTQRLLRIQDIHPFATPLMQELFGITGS
# Source text: (§1) L'effet des composés 1 et 4 sur le système endocrinien a été évalué pour leurs propriétés agonistes et antagonistes sur différents récepteurs : ERα (récepteur œstrogène alpha), AR (récepteur des androgènes) et PXR (pregnane X receptor). Un premier test consiste à étudier l'activité des récepteurs en présence du composé 1 ou 4 (effet agoniste). […] Un second test vise à l'étude de l'activité des récepteurs en présence du composé 1 ou 4 et d'une molécule de référence pour chaque récepteur (effet antagoniste).
# [2] = target: T2, AR (récepteur des androgènes) (Homo sapiens, UniProt P10275); experiment: as above; assay type: cell-based; settings: Figure 6, C = 10 µM; even at the highest concentrations
# T2 sequence (P10275 1-920): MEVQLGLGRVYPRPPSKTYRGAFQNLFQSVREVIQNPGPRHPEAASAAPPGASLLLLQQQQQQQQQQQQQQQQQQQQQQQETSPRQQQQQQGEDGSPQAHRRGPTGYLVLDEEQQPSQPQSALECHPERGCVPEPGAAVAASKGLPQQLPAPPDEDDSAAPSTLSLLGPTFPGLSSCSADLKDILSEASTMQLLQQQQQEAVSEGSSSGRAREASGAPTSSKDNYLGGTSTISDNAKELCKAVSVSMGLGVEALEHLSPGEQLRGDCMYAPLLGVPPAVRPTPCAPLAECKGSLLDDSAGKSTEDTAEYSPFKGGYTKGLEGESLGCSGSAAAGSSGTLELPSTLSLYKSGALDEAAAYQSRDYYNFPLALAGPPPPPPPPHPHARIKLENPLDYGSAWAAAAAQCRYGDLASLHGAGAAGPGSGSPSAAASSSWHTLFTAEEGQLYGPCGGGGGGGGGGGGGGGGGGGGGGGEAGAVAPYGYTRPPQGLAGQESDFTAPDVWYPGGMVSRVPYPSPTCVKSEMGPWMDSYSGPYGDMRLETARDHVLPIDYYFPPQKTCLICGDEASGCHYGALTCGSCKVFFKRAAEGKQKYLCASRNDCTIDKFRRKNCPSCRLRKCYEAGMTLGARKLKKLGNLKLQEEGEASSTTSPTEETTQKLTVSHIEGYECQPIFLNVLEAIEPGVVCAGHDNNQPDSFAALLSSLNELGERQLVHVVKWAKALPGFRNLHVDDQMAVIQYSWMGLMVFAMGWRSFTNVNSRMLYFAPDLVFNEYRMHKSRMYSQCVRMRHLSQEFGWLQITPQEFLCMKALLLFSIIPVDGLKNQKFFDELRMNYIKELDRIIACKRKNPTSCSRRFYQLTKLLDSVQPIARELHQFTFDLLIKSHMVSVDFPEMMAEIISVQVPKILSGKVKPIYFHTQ
# Source text: as §1
# [3] = target: T3, ERα (récepteur œstrogène alpha) (Homo sapiens, UniProt P03372); experiment: as above; assay type: cell-based; settings: Figure 6, C = 10 µM; even at the highest concentrations
# T3 sequence (P03372 1-595): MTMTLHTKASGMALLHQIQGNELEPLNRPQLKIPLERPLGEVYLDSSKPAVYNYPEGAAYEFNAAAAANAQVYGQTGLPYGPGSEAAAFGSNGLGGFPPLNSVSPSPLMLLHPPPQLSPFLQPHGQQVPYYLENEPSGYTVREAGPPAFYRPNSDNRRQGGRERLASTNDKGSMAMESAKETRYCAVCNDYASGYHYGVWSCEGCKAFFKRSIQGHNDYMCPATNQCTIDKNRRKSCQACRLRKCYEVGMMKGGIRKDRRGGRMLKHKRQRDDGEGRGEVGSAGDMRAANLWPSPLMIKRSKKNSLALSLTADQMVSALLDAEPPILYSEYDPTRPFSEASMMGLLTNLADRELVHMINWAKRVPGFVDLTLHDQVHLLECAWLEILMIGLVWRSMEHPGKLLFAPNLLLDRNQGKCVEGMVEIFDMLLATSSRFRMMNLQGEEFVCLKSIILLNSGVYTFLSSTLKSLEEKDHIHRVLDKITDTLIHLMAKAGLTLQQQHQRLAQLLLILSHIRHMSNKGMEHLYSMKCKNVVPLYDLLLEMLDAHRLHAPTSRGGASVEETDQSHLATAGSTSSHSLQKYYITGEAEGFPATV
# Source text: as §1
# [4] = target: T1, PXR (pregnane X receptor); experiment: Endocrine system: receptor activity in presence of compound and reference molecule (antagonist effect); assay type: cell-based; settings: Figure 9; with reference molecule; even at the highest concentrations
# Source text: as §1
# [5] = target: T2, AR (récepteur des androgènes); experiment: as above; assay type: cell-based; settings: Figure 8; with reference molecule; even at the highest concentrations
# Source text: as §1
# [6] = target: T3, ERα (récepteur œstrogène alpha); experiment: as above; assay type: cell-based; settings: Figure 7; with reference molecule; even at the highest concentrations
# Source text: as §1
# [7] = Photostability under UV exposure; assay type: physicochemical; settings: Tableau 1; for Perte d'activité (%): UV exposure λ 300 nm, P 8.32 W/m^2, one hour
# Source text: La stabilité des composés 1 à 7 aux UV a été étudiée par soumission à une exposition (λ : 300 nm, P : 8.32 W/m^2) pendant une heure.
# L'Avobenzone a été utilisée comme molécule de référence. Cette molécule est connue pour être […] sous exposition UV, ce qui n'est pas du tout le cas d'autres composés bio-sourcés.
# La photostabilité des composés 8 à 11 a également été étudiée, de manière identique au test appliqué aux composés 1 à 7. Les résultats obtenus sont présentés dans le Tableau 2. […] Cette méthodologie a été appliquée à l'ensemble des molécules décrites ci-dessus. Tableau 2 : Stabilité des composés 8 à 11 soumis à une exposition aux UV.
# [8] = UV-Vis absorption spectrum (anti-UVA and blue light properties); assay type: physicochemical; parameters: λmax: unit not given here; settings: Tableau 1
# Source text: Un spectre UV-Vis a été réalisé dans l'éthanol à 10^-5 mol/L pour les composés 1 à 7, qui sont des dérivés furaniques de l'acide de Medrum. L'Avobenzone, une molécule très largement utilisée comme filtre UVA dans les crèmes solaires, a été utilisée en tant que référence.
# Cette méthodologie a été employée pour évaluer les propriétés anti-UV des composés 8 à 11, qui sont des dérivés phénoliques de l'acide de Medrum, des composés 12 à 15 qui sont des dérivés pyrroliques de l'acide de Meldrum, des composés 16 à 18 qui sont des dérivés vinylphénol de l'acide de Meldrum, le composé 19 qui est un dérivé vinylfurane de l'acide de Meldrum.
compound,measurement,setting,value
"CC1(C)OC(=O)C(=Cc2ccc(CO)o2)C(=O)O1 [compound 4, 5-[[5-(Hydroxymethyl)-2-furanyl]methylene]-2,2-dimethyl-1,3-dioxane-4,6-dione]",effet agoniste (activité du récepteur PXR),[1],n'induisent pas une activité anormale des récepteurs
same,effet agoniste (activité du récepteur AR),[2],n'induisent pas une activité anormale des récepteurs
same,effet agoniste (activité du récepteur ERα),[3],n'induisent pas une activité anormale des récepteurs
same,effet antagoniste sur le récepteur PXR,[4],n'empêchent pas l'activité des récepteurs envers les molécules de référence
same,effet antagoniste sur le récepteur AR,[5],n'empêchent pas l'activité des récepteurs envers les molécules de référence
same,effet antagoniste sur le récepteur ERα,[6],n'empêchent pas l'activité des récepteurs envers les molécules de référence
same,Perte d'activité (%),[7],< 5%
same,Perte d'activité (%),[7]; listed as Composé (4),"3,4%"
same,A (t=0 min),[7]; absorbance before UV exposure,"0,28814"
same,λmax,[8],374
